The values below come from patent US20240092803A1, “BRIDGED COMPOUNDS AS KRAS G12D INHIBITOR AND DEGRADER AND THE USE THEREOF” (BEIGENE SWITZERLAND GMBH, priority 2021, published 2024).

What is called IC50 is the concentration that inhibits the measured activity by half. Low values mean greater potency, high ones weaker potency.

Some results are limits rather than exact numbers.

Assay [1] concerns the target GST-tagged KRAS (amino acids 1-188) G12D binding to His-tagged SOS1 (Homo sapiens (Human), UniProt P01116, G12D). Nature of the assay: KRAS G12D:SOS1 GDP TR-FRET assay. To be noted: GDP 10 μM; KRAS G12D 37.5 nM; SOS1 18 nM. The procedure:
(§1) KRAS: SOS1 GDP TR-FRET Assay
(§2) This assay was used to identify compounds which competitively interact with the binding of KRAS protein to SOS1 in the presence of GDP. GST-tagged WT KRAS (amino acids 1-188), GST-tagged KRAS (amino acids 1-188) G12D and His- tagged SOS1 protein (amino acids 564-1049) was expressed in E. coli and purified. All protein and reaction solutions were prepared in assay buffer containing DPBS pH7.5, 0.1% BSA, and 0.05% Tween 20. Purified GST-tagged WT KRAS or KRAS G12D protein (37.5 nM final assay concentration) and GDP (Sigma, 10 μM final assay concentration) mixture, a serially diluted compound (top final concentration is 50 uM or 10 uM, 3-fold serially diluted, 10 points) and His-tagged SOS1 protein (18 nM final assay concentration) were added into the assay plates (384 well microplate, black, Corning) sequentially. Plates are incubated at 24° C. for 1 hr. Following the incubation, Mab Anti-6His-Tb cryptate (Cisbio) and Mab Anti GST-D2 (Cisbio) were added and further incubated at 24° C. for another 1 hr. The TR-FRET signals (ex337nm, em665nm/620nm) were read on BMG PHERAstar FSX instrument. The inhibition percentage of KRAS protein binding with SOS1 in presence of increasing concentrations of compounds was calculated based on the ratio of fluorescence at 665 nm to that at 620 nm. The IC50 value of each compound was calculated from fitting the data to the four-parameter logistic model by Dotmatics.
(TR-FRET usually uses a lanthanide donor and a delayed reading to cut background.)

For assay [2], the target named is GST-tagged WT KRAS (amino acids 1-188) binding to His-tagged SOS1 (Homo sapiens (Human), UniProt P01116). The assay is described as follows: KRAS WT:SOS1 GDP TR-FRET assay. To be noted: GDP 10 μM; WT KRAS 37.5 nM; SOS1 18 nM. The method, then:
as §1, §2

In assay [3] the test system is pERK1/2(THR202/TYR204) level in AsPC-1 cells. The assay is described as follows: pERK assay (HTRF) in AsPC-1 cells. The settings on record: Homo sapiens, ASPC1, 2 h compound treatment. It counts as cell-based. The method, then: AsPC-1 cell line was used in this study. Cells were maintained in RPMI-1640 supplemented with 10% fetal bovine serum (Thermo Fisher), 50 units/mL penicillin and streptomycin (Thermo Fisher) and kept at 37° C. in a humidified atmosphere of 5% CO2 in air. Cells were reinstated from frozen stocks that were laid down within 30 passages from the original cells purchased. 30000 cells per well were seeded into a 96-well plate and incubated overnight. Cells were treated with a 10-point dilution series. The final compound concentration is from 0 to 10 μM. After 2 h compound treatment, cells were lysed, and the pERK1/2(THR202/TYR204) level in the cell lysates was detected by HTRF kit (Cisbio). In brief, a total of 16 μl of cell lysate from each well of a 96-well plate was transferred to a 384-well white assay plate. Lysate from each well was incubated with 2 μL of Eu3+- cryptate (donor) labeled anti-phospho-ERK1/2 and 2 μL of D2 (acceptor) labeled anti-phospho-ERK1/2 antibodies (Cisbio) overnight in dark at room temperature. When donor and acceptor are in close proximity, excitation of the donor with laser triggers a Fluorescence Resonance Energy Transfer (FRET) towards the acceptor, which in turn fluoresces at 655 nm wavelength. FRET signals were measured using a PHERAstar FSX reader (BMG Labtech). IC50 determination was performed by fitting the curve of percent inhibition versus the log of the inhibitor concentration using Dotmatics.

Assay [4] has as its target KRAS G12D HiBiT in HEK293 KRAS-G12D NanoLuc cell pool (Homo sapiens (Human), UniProt P01116, G12D). The assay is described as follows: KRAS G12D NanoLuc assay. It counts as cell-based. The settings on record: 24 h compound treatment. The method, then:
HEK293 KRAS-G12D NanoLuc cell pool was used in this study. The cells were stable expressing KRAS G12D HiBiT and LgBiT. Cells were maintained in DMEM supplemented with 10% fetal bovine serum (Thermo Fisher), 50 units/mL penicillin and streptomycin (Thermo Fisher) and kept at 37° C. in a humidified atmosphere of 5% CO2 in air. Cells were reinstated from frozen stocks that were laid down within 30 passages from the cell pool was constructed. 20000 cells per well were seeded a 96-well White with Clear Flat bottom plate for 4 h. Cells were treated with a 10-point dilution series. The final compound concentration is from 0 to 10 μM. After 24 h compound treatment, added 20 μL of CellTiter-Fluor reagent (Promega) to plates, shook for 2 min, incubated at least 30 min in 37° C. Added 25 μL of NanoGlo Live cell reagent (Promega) to the same plate. shook by mini-shaker for 5 min. Measure Luminescence and Fluorescence (380-400nmEx/505nmEm) signals immediately using a PHERAstar FSX reader (BMG Labtech). DC50 determination was performed by fitting the curve of percent inhibition versus the log of the inhibitor concentration using Excel and GraphPad Prism 8.

Chain of GST-tagged KRAS (amino acids 1-188) G12D binding to His-tagged SOS1 (P01116 other isoform, or with tags, fused parts or gaps G12D): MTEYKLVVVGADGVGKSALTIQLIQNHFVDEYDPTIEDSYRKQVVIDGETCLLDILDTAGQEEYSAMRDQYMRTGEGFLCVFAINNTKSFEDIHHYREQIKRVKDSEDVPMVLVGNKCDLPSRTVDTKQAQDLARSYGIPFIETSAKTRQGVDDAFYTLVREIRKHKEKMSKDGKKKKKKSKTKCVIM
Chain of GST-tagged WT KRAS (amino acids 1-188) binding to His-tagged SOS1 (P01116 other isoform, or with tags, fused parts or gaps): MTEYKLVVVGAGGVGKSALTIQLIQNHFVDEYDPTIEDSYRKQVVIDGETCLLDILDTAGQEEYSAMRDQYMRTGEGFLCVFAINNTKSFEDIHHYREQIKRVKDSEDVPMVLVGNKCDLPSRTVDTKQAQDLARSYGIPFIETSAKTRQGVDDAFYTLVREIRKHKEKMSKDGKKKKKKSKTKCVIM
Chain of KRAS G12D HiBiT in HEK293 KRAS-G12D NanoLuc cell pool (P01116 other isoform, or with tags, fused parts or gaps G12D): as the sequence (P01116 other isoform, or with tags, fused parts or gaps G12D) above

Regarding `Cc1cccc2cccc(N3CCc4c(nc(OC[C@@H]5CCCN5C)nc4N4CCNCC4)C3)c12` [Example 1, (S)-7-(8-methylnaphthalen-1-yl)-2-((1-methylpyrrolidin-2-yl)methoxy)-4-(piperazin-1-yl)-5,6,7,8-tetrahydropyrido[3,4-d]pyrimidine], the values for the concentration for half-maximal inhibition (IC50) in assay [1] and in assay [2] were 22.7 µM and over 50 µM, respectively.

Consider `Cc1cccc2cccc(N3CCc4c(nc(OC[C@@H]5CCCN5C)nc4N4C5CCC4C(N)C5)C3)c12` (stereo partly drawn) [Example 2, 7-(7-(8-methylnaphthalen-1-yl)-2-(((S)-1-methylpyrrolidin-2-yl)methoxy)-5,6,7,8-tetrahydropyrido[3,4-d]pyrimidin-4-yl)-7-azabicyclo[2.2.1]heptan-2-amine], for which the results for the IC50 in assay [1] and in assay [2] were 4.5 µM and 34.2 µM, respectively.

Turning to `CN1CCC[C@H]1COc1nc2c(c(N3C4CCC3CNC4)n1)CCN(c1cccc3cccc(Cl)c13)C2` [Example 3, 4-(3,8-diazabicyclo[3.2.1]octan-8-yl)-7-(8-chloronaphthalen-1-yl)-2-(((S)-methylpyrrolidin-2-yl)methoxy)-5,6,7,8-tetrahydropyrido[3,4-d]pyrimidine], the figures for the IC50 in assay [1] and in assay [2] were 0.635 µM and over 50 µM, respectively.

In the case of `Cc1cccc2cccc(N3CCc4c(nc(OC[C@@H]5CCCN5C)nc4N4CC5CC4CN5)C3)c12` (stereo partly drawn) [Example 4, 4-(2,5-diazabicyclo[2.2.1]heptan-2-yl)-7-(8-methylnaphthalen-1-yl)-2-(((S)-1-methylpyrrolidin-2-yl)methoxy)-5,6,7,8-tetrahydropyrido[3,4-d]pyrimidine], the figures for the IC50 in assay [1] and in assay [2] were 2.59 µM and over 50 µM, respectively.

For `Cc1cccc2cccc(N3CCc4c(nc(OC[C@@H]5CCCN5C)nc4N4CC5CCC(C4)N5)C3)c12` [Example 5, 4-(3,8-diazabicyclo[3.2.1]octan-3-yl)-7-(8-methylnaphthalen-1-yl)-2-(((S)-1-methylpyrrolidin-2-yl)methoxy)-5,6,7,8-tetrahydropyrido[3,4-d]pyrimidine], the IC50 in assay [1] was 0.118 µM; in assay [2], over 50 µM; in assay [3], over 10 µM.

Turning to `Cc1cccc2cccc(N3CCc4c(nc(OC[C@@H]5CCCN5C)nc4N4CC5CCC4CN5)C3)c12` (stereo partly drawn) [Example 6, 2-(7-(8-methylnaphthalen-1-yl)-2-(((S)-1-methylpyrrolidin-2-yl)methoxy)-5,6,7,8-tetrahydropyrido[3,4-d]pyrimidin-4-yl)-2,5-diazabicyclo[2.2.2]octane], the IC50 was 0.713 µM in assay [1] and over 50 µM in assay [2].

For the molecule `CN1CCC[C@H]1COc1nc2c(c(N3CC4CCC(C3)N4)n1)CCN(c1cccc3cccc(Cl)c13)C2` [Example 7, 4-(3,8-diazabicyclo[3.2.1]octan-3-yl)-7-(8-chloronaphthalen-1-yl)-2-(((S)-1-methylpyrrolidin-2-yl)methoxy)-5,6,7,8-tetrahydropyrido[3,4-d]pyrimidine], the IC50 in assay [1] came to 0.059 µM; in assay [2], 17.2 µM; in assay [3], 6.75 µM.

For `Cc1cccc2cccc(N3CCc4c(nc(OC[C@@H]5CCCN5C)nc4N4CC5CC(C4)N5)C3)c12` [Example 8, 3-(7-(8-methylnaphthalen-1-yl)-2-(((S)-1-methylpyrrolidin-2-yl)methoxy)-5,6,7,8-tetrahydropyrido[3,4-d]pyrimidin-4-yl)-3,6-diazabicyclo[3.1.1]heptane], the half-inhibitory concentration (IC50) in assay [1] was 0.749 µM; in assay [2], over 10 µM.

On to `CN1CCC[C@H]1COc1nc2c(c(N3CC4CCC(C3)N4)n1)CCN(c1cccc3ccc(Cl)c(Cl)c13)C2` [Example 9], for which the IC50 is 0.063 µM in assay [1], over 10 µM in assay [2] and 9.93 µM in assay [3].

In the case of `CN1CCC[C@H]1COc1nc2c(c(N3CC4CCC(C3)N4)n1)CCN(c1cc(O)cc3ccccc13)C2` [Example 10], the IC50 in assay [1] came out at 0.022 µM; in assay [2] it was 6.21 µM.

Take `CN1CCC[C@H]1COc1nc2c(c(N3CC4CCC(C3)N4)n1)CCN(c1cccc3ccc(F)c(Cl)c13)C2` [Example 11]: the IC50 came to 0.012 µM in assay [1], 3.62 µM in assay [2] and 4.64 µM in assay [3].

As to `CN1CCC[C@H]1COc1nc2c(c(N3CC4CCC(C3)N4)n1)CCN(c1cc(N)cc(Cl)c1C(F)(F)F)C2` [Example 12, 3-(4-(3,8-diazabicyclo[3.2.1]octan-3-yl)-2-(((S)-1-methylpyrrolidin-2-yl)methoxy)-5,8-dihydropyrido[3,4-d]pyrimidin-7(6H)-yl)-5-chloro-4-(trifluoromethyl)aniline], the half-maximal inhibitory concentration (IC50) in assay [1] is 0.0098 µM; in assay [2] it was 2.39 µM; in assay [3], 1.95 µM.

Consider `CN1CCC[C@H]1COc1nc2c(c(N3CC4CCC(C3)N4)n1)CCN(c1cc(N)cc(Cl)c1Cl)C2` [Example 13], for which the IC50 was 0.027 µM in assay [1], over 10 µM in assay [2] and 4.1 µM in assay [3].

For `CO[C@@H]1C[C@@H](COc2nc3c(c(N4CC5CCC(C4)N5)n2)CCN(c2cccc4cccc(Cl)c24)C3)N(C)C1` [Example 14, 4-(3,8-diazabicyclo[3.2.1]octan-3-yl)-7-(8-chloronaphthalen-1-yl)-2-(((2S,4R)-4-methoxy-1-methylpyrrolidin-2-yl)methoxy)-5,6,7,8-tetrahydropyrido[3,4-d]pyrimidine], the figures for the IC50 in assay [1], in assay [2] and in assay [3] were 0.126 µM, over 10 µM and over 10 µM, respectively.

Take `CN1C[C@H](F)C[C@H]1COc1nc2c(c(N3CC4CCC(C3)N4)n1)CCN(c1cccc3cccc(Cl)c13)C2` [Example 15, 4-(3,8-diazabicyclo[3.2.1]octan-3-yl)-7-(8-chloronaphthalen-1-yl)-2-(((2S,4R)-4-fluoro-1-methylpyrrolidin-2-yl)methoxy)-5,6,7,8-tetrahydropyrido[3,4-d]pyrimidine]: the IC50 in assay [1] is 0.041 µM; in assay [2], over 10 µM; in assay [3], 4.03 µM.

In assay [4], `Cc1ncsc1-c1ccc([C@H](C)NC(=O)[C@@H]2C[C@@H](O)CN2C(=O)[C@@H](NC(=O)CCCCCCN2CCC[C@H]2COc2nc3c(c(N4CC5CCC(C4)N5)n2)CCN(c2cccc4cccc(Cl)c24)C3)C(C)(C)C)cc1` [Example 16] registered a DC50 of 1 µM and a Dmax of 73%.
